Patent publication US20020048572A1, “Treatment of hypertriglyceridemia and other conditions using LXR modulators” (priority 2000, published 2002)
Entries after “also recorded” stand apart in the source; their conditions may differ.

Columns and labels:
HepG2 cells [1] = experiment: Northern blot analysis of HepG2 cells treated with LXRα ligand, with or without cyclohexamide; format: cell-based
Description: HepG2 cells were treated with 24,25-epoxycholesterol in the presence or absence of 50 μg/ml cyclohexamide in DMEM F12 media supplemented with 10% lipid-free serum for 18 hours.
Total RNA was then prepared using the TRIzol® method (Chomczynski and Saachi (1987) Anal. Biochem. 162:156). Electrophoresis and Northern blot analysis were performed using the NorthernMax™ system (Ambion). Ribonucleotide probes were used to identify the RNA transcripts.

[2] = system: HepG2, 293, and CaCO2 cells; experiment: Northern blot analysis of three cell lines treated with oxysterols in presence of cyclohexamide; format: cell-based; conditions: 30 μM, 50 μg/ml cyclohexamide, 18 hours
Description: To ascertain whether or not the 24,25-epoxycholesterol-mediated activation of SREBP-1 expression is cell-specific, three cell lines were tested. HepG2, 293, and CaCO2 cells were treated with either DMSO, 30 μM of 24,25-epoxycholesterol, 30 μM of 22(R)-hydroxycholesterol, or 30 μM 22(S)-hydroxycholesterol in the presence of 50 μg/ml cyclohexamide in DMEM F12 media supplemented with 10% lipid-free serum for 18 hours.
Total RNA was then prepared using the Trizol method. Electrophoresis and Northern blot analysis were performed using the NorthernMax™ system (Ambion). Ribonucleotide probes were used to identify RNA transcripts.

LXRα = molecular target: T1, LXRα (Homo sapiens, UniProt Q13133); conditions: SPA
T1 sequence (Q13133 1-447): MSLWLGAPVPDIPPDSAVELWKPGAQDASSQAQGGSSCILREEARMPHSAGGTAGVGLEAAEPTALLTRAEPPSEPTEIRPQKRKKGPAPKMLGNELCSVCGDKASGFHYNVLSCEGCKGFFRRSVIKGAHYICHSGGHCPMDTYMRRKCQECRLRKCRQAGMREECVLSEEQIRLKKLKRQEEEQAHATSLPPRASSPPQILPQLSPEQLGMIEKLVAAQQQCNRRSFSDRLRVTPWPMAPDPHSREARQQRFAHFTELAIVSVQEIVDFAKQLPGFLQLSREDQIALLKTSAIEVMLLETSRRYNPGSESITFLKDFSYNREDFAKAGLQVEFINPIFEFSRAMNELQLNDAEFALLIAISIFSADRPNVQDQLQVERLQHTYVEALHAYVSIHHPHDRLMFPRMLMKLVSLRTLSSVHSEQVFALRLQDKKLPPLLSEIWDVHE

[3] = molecular target: T2, LXRα ligand-binding domain (Homo sapiens, UniProt Q13133); experiment: biochemical
T2 sequence (Q13133 209-447 limits assumed): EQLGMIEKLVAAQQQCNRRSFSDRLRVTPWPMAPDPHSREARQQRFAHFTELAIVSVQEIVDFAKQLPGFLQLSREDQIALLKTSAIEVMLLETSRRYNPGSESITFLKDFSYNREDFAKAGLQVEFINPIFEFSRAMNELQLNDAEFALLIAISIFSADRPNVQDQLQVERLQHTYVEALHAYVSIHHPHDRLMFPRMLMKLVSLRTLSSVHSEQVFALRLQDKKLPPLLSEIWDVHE

HepG2 cells [4] = experiment: Northern blot analysis of T0314407-dosed HepG2 cells with and without cycloheximide; format: cell-based; conditions: HepG2, with 50 μg/mL cycloheximide, 18 h
Description: FIG. 9. Northern blot analysis. Total RNA was isolated from the tissues indicated from mice (A,B,C) and hamsters (D). The numerical data shown with each figure represents the fold increase (+) or decrease (−) of expression relative to corresponding vehicle-treated controls. (E) HepG2 cells were incubated in culture media with or without cycloheximide (cyclohex). For the Northern blot analysis from cycloheximide-treated HepG2 cells, tissue cultures were incubated in cell culture media with 10% lipid-deficient serum with or without 50 μg/mL cycloheximide. T0314407 was added after 30 min of cycloheximide treatment, cells were harvested 18 h later, and total RNA was extracted as described.

[5] = HepG2, presence and absence of 50 μg/ml cyclohexamide, 18 hours

Structure (SMILES)	expression of SREBP-2 (HepG2 cells [1]; HepG2, 18 hours)	expression of negative control GAPDH (HepG2 cells [1]; HepG2, 18 hours)	expression of SREBP-1 mRNA (HepG2 cells [1]; [5])	expression of fatty acid synthase (HepG2 cells [1]; [5])	expression of GAPDH [2]	expression of SREBP-2 [2]	SREBP-1 expression ([2]; all three cell lines)	competition with binding of radiolabeled T0314407 to LXRα (LXRα)	EC50 [3] [nM]	agonist-mediated increase in levels of FAS mRNA (HepG2 cells [4])	induction of SREBP-1 gene expression (HepG2 cells [4])
C[C@H](CC[C@@H]1OC1(C)C)[C@H]1CC[C@H]2[C@@H]3CC=C4C[C@@H](O)CC[C@]4(C)[C@H]3CC[C@]12C [24,25-epoxycholesterol, 24(S),25-epoxycholesterol]	not affected	not affected	stimulated; also recorded: activates	stimulated	not significantly enhanced	not significantly enhanced	activates	competed	300	–	–
CN(c1ccc(C(O)(C(F)(F)F)C(F)(F)F)cc1)S(=O)(=O)c1ccccc1 [T0314407, N-methyl-N-[4-(2,2,2-trifluoro-1-hydroxy-1-trifluoromethyl-ethyl)-phenyl]-benzenesulfonamide]	–	–	–	–	–	–	–	–	–	arrested	persisted
